Values of other authors as cited in patent US11865201B2, “Product for dyeing keratinous material, containing aminosilicone, a chromophoric compound and ethoxylated fatty acid ester” (Henkel AG & Co. KGaA, priority 2019, dated 2024).

Settings: 25° C.

| SMILES | solubility in water | solubility in water (in words) |
| --- | --- | --- |
| CCN(Cc1cccc(S(=O)(=O)[O-])c1)c1ccc(C(=C2C=CC(=[N+](CC)Cc3cccc(S(=O)(=O)[O-])c3)C=C2)c2ccccc2S(=O)(=O)[O-])cc1.[Na+].[Na+] [Acid Blue 9] | more than 20 wt. % |  |
| O=C([O-])C1=NN(c2ccc(S(=O)(=O)[O-])cc2)C(=O)C1N=Nc1ccc(S(=O)(=O)[O-])cc1.[Na+].[Na+].[Na+] (centres unmarked) [Acid Yellow 23, trisodium salt of 4,5-dihydro-5-oxo-1-(4-sulfophenyl)-4-((4-sulfophenyl)azo)-1H-pyrazole-3-carboxylic acid] |  | highly soluble in water |
| O=S(=O)([O-])c1ccc(N=Nc2c(O)ccc3ccccc23)cc1.[Na+] [Acid Orange 7, sodium salt of 4-[(2-hydroxy-1-naphthyl)azo]benzene sulphonate] | more than 7 g/L |  |
| Nc1cc(S(=O)(=O)[O-])cc2cc(S(=O)(=O)[O-])c(N=Nc3ccccc3)c(O)c12.[Na+].[Na+] [Acid Red 33, diantrium salt of 5-amino-4-hydroxy-3-(phenylazo)-naphthalene-2,7-disulphonate] | 2500 µg/mL |  |
| O=C([O-])c1c(Cl)c(Cl)c(Cl)c(Cl)c1-c1c2c(Br)cc(=O)c(Br)c-2oc2c(Br)c(O)cc(Br)c12.O=C([O-])c1c(Cl)c(Cl)c(Cl)c(Cl)c1-c1c2c(Br)cc(=O)c(Br)c-2oc2c(Br)c(O)cc(Br)c12.[Na+].[Na+] [Acid Red 92, disodium salt of 3,4,5,6-tetrachloro-2-(1,4,5,8-tetrabromo-6-hydroxy-3-oxoxanthen-9-yl)benzoic acid] | greater than 10 g/L |  |
